Test results from patent publication US20160120863A1, “SLC2A TRANSPORTER INHIBITORS” (IOMET PHARMA LTD., priority 2013, published 2016).

Key:
Assay type in all cases: cell-based
human GLUT1 = biological target: T1, human GLUT1 (Homo sapiens, UniProt P11166); assay: [3H]-deoxy-D-glucose uptake assay, GLUT1; conditions: [3H]-deoxy-D-glucose uptake in HEK293 cells stably expressing human GLUT1
T1 construct: expressed in transfected cells
T1 sequence (P11166 1-492): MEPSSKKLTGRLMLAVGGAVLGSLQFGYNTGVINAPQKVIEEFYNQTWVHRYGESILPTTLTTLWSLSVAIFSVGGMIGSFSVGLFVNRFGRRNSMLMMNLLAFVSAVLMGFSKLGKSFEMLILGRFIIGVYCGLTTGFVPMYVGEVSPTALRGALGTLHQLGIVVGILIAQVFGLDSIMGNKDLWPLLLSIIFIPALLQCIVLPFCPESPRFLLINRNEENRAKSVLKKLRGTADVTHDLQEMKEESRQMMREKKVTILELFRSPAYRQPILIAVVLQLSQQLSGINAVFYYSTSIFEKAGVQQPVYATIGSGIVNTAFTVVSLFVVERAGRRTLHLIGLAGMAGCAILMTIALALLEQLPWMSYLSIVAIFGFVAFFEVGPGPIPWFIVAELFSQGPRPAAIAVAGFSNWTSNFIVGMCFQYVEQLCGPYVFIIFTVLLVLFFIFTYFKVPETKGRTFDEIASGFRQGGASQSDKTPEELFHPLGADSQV
Method in brief: (§1)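 HEK293 cells stably overexpressing human GLUT1 or GLUT2, seeded at 60,000 per well, treated with compounds in glucose-free uptake buffer for 30 min at 37 °C. [3H]-deoxy-D-glucose uptake quantified by scintillation counting after ice-cold PBS washes; IC50 determined.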

human GLUT2 = biological target: T2, human GLUT2 (Homo sapiens, UniProt P11168); assay: [3H]-deoxy-D-glucose uptake assay, GLUT2; conditions: [3H]-deoxy-D-glucose uptake in HEK293 cells stably expressing human GLUT2
T2 construct: expressed in transfected cells
T2 sequence (P11168 1-524): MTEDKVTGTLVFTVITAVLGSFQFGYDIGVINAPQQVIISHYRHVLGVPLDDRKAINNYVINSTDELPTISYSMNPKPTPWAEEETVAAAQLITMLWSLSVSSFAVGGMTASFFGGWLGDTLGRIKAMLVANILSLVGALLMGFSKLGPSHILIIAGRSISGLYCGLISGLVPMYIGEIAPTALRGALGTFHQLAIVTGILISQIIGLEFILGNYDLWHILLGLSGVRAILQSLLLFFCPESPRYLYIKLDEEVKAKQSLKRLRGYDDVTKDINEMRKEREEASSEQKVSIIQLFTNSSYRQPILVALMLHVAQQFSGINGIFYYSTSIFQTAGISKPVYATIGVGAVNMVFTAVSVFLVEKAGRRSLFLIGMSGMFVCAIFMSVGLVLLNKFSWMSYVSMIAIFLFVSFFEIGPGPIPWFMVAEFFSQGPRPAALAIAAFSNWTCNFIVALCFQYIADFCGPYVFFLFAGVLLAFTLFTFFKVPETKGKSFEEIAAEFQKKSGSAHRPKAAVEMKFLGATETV
Method in brief: as §1

human GLUT3 = biological target: T3, human GLUT3 (Homo sapiens, UniProt P11169); assay: [3H]-deoxy-D-glucose uptake assay, GLUT3; conditions: [3H]-deoxy-D-glucose uptake in HEK293 cells stably expressing human GLUT3
T3 construct: expressed in transfected cells
T3 sequence (P11169 1-496): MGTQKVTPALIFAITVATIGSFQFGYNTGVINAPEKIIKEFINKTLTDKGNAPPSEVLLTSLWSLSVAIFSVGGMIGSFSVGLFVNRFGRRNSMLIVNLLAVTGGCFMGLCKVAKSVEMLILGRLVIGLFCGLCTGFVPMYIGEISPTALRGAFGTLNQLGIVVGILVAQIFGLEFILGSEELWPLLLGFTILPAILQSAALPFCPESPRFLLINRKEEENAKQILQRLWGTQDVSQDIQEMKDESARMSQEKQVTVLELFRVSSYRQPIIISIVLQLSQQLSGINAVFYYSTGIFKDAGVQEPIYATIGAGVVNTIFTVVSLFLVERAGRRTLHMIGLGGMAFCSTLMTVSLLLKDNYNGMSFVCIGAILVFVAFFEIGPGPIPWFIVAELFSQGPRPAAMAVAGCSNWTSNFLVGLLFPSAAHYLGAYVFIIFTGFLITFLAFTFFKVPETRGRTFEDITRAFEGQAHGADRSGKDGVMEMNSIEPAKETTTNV
Method: (§2) HEK293 cells were engineered to stably express either human GLUT1, GLUT2, GLUt3 or GLUT4 by transfection with the pReceiver-Lv105 plasmid, containing either hGLUT1, hGLUT2, hGLUT3, or hGLUT4 gene constructs with lipofectamine 2000, hGLUT1- hGLUT2- hGLUT3- or hGLUT4-overexpressing polyclonal populations were isolated under purinomycin selective pressure (1 μg/ml) and maintained in Dulbecco's modified Eagle's medium supplemented with 1 μg/ml purinomycin+10% foetal bovine serum (FBS).
(§3) 60,000 cells per well were seeded overnight into poly-D-lysine coasted 96-well plates. Following media removal, cells were washed twice in warm glucose-free uptake buffer (25 mM HEPES/KOH pH 7.4, 125 mM NaCl, 4.8 mM KCl, 1.2 mM MgSO4, 1.2 mM CaCl2, 1.2 mM KH2PO4). 90 μl of test compounds were added in glucose-free uptake buffer and cells were incubated at 37° C. for 30 min. 10 μl of [3H]-deoxy-D-glucose (0.25 μCi, 125 μM final assay concentration) was then added per well in glucose-free uptake buffer and uptake was allowed to proceed at 37° C. for 30 min.
(§4) Cells were then washed twice with ice-cold PBS and 100 μl of Microscint-20 was added per well. Glucose uptake was quantified with a scintillation counter. The half maximal inhibitory concentration (IC50) (a measure of the effectiveness of the test compound in inhibiting glucose uptake) was determined.

human GLUT4 = biological target: T4, human GLUT4 (Homo sapiens, UniProt P14672); assay: [3H]-deoxy-D-glucose uptake assay, GLUT4; conditions: [3H]-deoxy-D-glucose uptake in HEK293 cells stably expressing human GLUT4
T4 construct: expressed in transfected cells
T4 sequence (P14672 1-509): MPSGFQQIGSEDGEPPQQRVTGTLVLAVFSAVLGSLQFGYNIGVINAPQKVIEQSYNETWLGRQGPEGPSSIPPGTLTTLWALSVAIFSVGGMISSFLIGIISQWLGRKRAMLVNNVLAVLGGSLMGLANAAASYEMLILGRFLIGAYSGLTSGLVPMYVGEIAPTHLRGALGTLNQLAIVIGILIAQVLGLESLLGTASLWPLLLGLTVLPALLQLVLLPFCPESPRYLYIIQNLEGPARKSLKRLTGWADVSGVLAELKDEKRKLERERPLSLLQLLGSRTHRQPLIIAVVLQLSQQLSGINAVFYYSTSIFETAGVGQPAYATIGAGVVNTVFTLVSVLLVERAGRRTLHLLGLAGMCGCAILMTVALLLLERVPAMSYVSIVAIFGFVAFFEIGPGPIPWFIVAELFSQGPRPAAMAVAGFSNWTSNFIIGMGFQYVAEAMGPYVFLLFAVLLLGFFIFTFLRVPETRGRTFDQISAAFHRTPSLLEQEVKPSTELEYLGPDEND
Method: as §2, §3, §4

Row | Structure (SMILES) | GLUT1 pIC50 (human GLUT1) | GLUT2 pIC50 (human GLUT2) | GLUT3 pIC50 (human GLUT3) | GLUT4 pIC50 (human GLUT4)
1 | CN(c1ccc2nc(-c3ccc(Cl)cc3Cl)c(CN3CCN(C(=O)C4COC4)CC3)n2c1)S(C)(=O)=O [Compound 335] | +++ (pIC50 ≧ 6.00) | +++ (pIC50 ≧ 6.00) | +++ (pIC50 ≧ 6.00) | +++ (pIC50 ≧ 6.00)
2 | COCC(=O)N1CCN(Cc2c(-c3ccc(Cl)cc3Cl)nc3ccc(NS(C)(=O)=O)cn23)CC1 [Compound 336] | +++ (pIC50 ≧ 6.00) | ++ (pIC50 5.00-5.99) | +++ (pIC50 ≧ 6.00) | +++ (pIC50 ≧ 6.00)
3 | CC(=O)N1CCN(Cc2c(-c3ccc(Cl)cc3Cl)nc3ccc(N4CCCS4(=O)=O)cn23)CC1 [Compound 339] | +++ (pIC50 ≧ 6.00) | +++ (pIC50 ≧ 6.00) | +++ (pIC50 ≧ 6.00) | +++ (pIC50 ≧ 6.00)
4 | CN(c1ccc2nc(-c3ccc(Cl)cc3Cl)c(CN3CCn4ncnc4C3)n2c1)S(C)(=O)=O [Compound 346] | +++ (pIC50 ≧ 6.00) | ++ (pIC50 5.00-5.99) | +++ (pIC50 ≧ 6.00) | +++ (pIC50 ≧ 6.00)
5 | CNS(=O)(=O)c1ccc2nc(-c3ccc(Cl)cc3)c(CN3CCN(C(C)=O)CC3)n2c1 [Compound 351] | +++ (pIC50 ≧ 6.00) | ++ (pIC50 5.00-5.99) | +++ (pIC50 ≧ 6.00) | +++ (pIC50 ≧ 6.00)
6 | CN(c1ccc2nc(-c3ccc(Cl)cc3Cl)c(CN3CCNC(=O)C3)n2c1)S(C)(=O)=O [Compound 355] | +++ (pIC50 ≧ 6.00) | +++ (pIC50 ≧ 6.00) | +++ (pIC50 ≧ 6.00) | +++ (pIC50 ≧ 6.00)
7 | CS(=O)(=O)Nc1ccc2nc(-c3ccc(Cl)cc3Cl)c(CN3CCN(C(=O)c4ccnnc4)CC3)n2c1 [Compound 356] | +++ (pIC50 ≧ 6.00) | +++ (pIC50 ≧ 6.00) | +++ (pIC50 ≧ 6.00) | +++ (pIC50 ≧ 6.00)
8 | CS(=O)(=O)Nc1ccc2nc(-c3ccc(Cl)cc3Cl)c(CN3CCN(C(=O)c4ccc(F)cc4)CC3)n2c1 [Compound 360] | +++ (pIC50 ≧ 6.00) | ++ (pIC50 5.00-5.99) | +++ (pIC50 ≧ 6.00) | +++ (pIC50 ≧ 6.00)
9 | CC(C)(O)C(=O)N1CCN(Cc2c(-c3ccc(Cl)cc3Cl)nc3ccc(NS(C)(=O)=O)cn23)CC1 [Compound 361] | +++ (pIC50 ≧ 6.00) | ++ (pIC50 5.00-5.99) | +++ (pIC50 ≧ 6.00) | +++ (pIC50 ≧ 6.00)
10 | CN(c1ccc2nc(-c3ccc(Cl)cc3Cl)c(CN3CCN(C(=O)c4ccc(F)cc4)CC3)n2c1)S(C)(=O)=O [Compound 363] | +++ (pIC50 ≧ 6.00) | +++ (pIC50 ≧ 6.00) | +++ (pIC50 ≧ 6.00) | +++ (pIC50 ≧ 6.00)
11 | CC(C)c1cn2c(CN3CCOCC3)c(-c3ccc(Cl)cc3Cl)nc2cn1 [Compound 366] | +++ (pIC50 ≧ 6.00) | +++ (pIC50 ≧ 6.00) | +++ (pIC50 ≧ 6.00) | +++ (pIC50 ≧ 6.00)
12 | Cn1cc(C(=O)N2CCN(Cc3c(-c4ccc(Cl)cc4Cl)nc4ccc(NS(C)(=O)=O)cn34)CC2)cn1 [Compound 369] | +++ (pIC50 ≧ 6.00) | ++ (pIC50 5.00-5.99) | +++ (pIC50 ≧ 6.00) | +++ (pIC50 ≧ 6.00)

The next lines start with the values.

Row | GLUT1 pIC50 (human GLUT1) | GLUT2 pIC50 (human GLUT2) | GLUT3 pIC50 (human GLUT3) | GLUT4 pIC50 (human GLUT4) | Structure (SMILES)
13 | +++ (pIC50 ≧ 6.00) | ++ (pIC50 5.00-5.99) | +++ (pIC50 ≧ 6.00) | +++ (pIC50 ≧ 6.00) | CC(=O)N1CCN(Cc2c(-c3ccc(Cl)cc3)nc3ccc(N(C)S(=O)(=O)C(C)C)cn23)CC1 [Compound 340]
14 | +++ (pIC50 ≧ 6.00) | +− (pIC50 < 4.00) | +++ (pIC50 ≧ 6.00) | +++ (pIC50 ≧ 6.00) | CCCS(=O)(=O)N(C)c1ccc2nc(-c3ccc(Cl)cc3)c(CN3CCN(C(C)=O)CC3)n2c1 [Compound 341]
15 | +++ (pIC50 ≧ 6.00) | ++ (pIC50 5.00-5.99) | +++ (pIC50 ≧ 6.00) | +++ (pIC50 ≧ 6.00) | CC(=O)N1CCN(Cc2c(-c3ccc(Cl)cc3)nc3ccc(S(=O)(=O)N(C)C)cn23)CC1 [Compound 350]
16 | +++ (pIC50 ≧ 6.00) | ++ (pIC50 5.00-5.99) | +++ (pIC50 ≧ 6.00) | +++ (pIC50 ≧ 6.00) | CCN(c1ccc2nc(-c3ccc(Cl)cc3)c(CN3CCN(C(C)=O)CC3)n2c1)S(C)(=O)=O [Compound 353]
17 | +++ (pIC50 ≧ 6.00) | ++ (pIC50 5.00-5.99) | +++ (pIC50 ≧ 6.00) | +++ (pIC50 ≧ 6.00) | CC(=O)N1CCN(Cc2c(-c3ccc(Cl)cc3)nc3ccc(N(C(C)C)S(C)(=O)=O)cn23)CC1 [Compound 365]
18 | +++ (pIC50 ≧ 6.00) | +++ (pIC50 ≧ 6.00) | +++ (pIC50 ≧ 6.00) | +++ (pIC50 ≧ 6.00) | CC(=O)N1CCN(Cc2c(-c3ccc(Cl)cc3Cl)nc3ccc(N(C(F)F)S(C)(=O)=O)cn23)CC1 [Compound 367]
19 | +++ (pIC50 ≧ 6.00) | +++ (pIC50 ≧ 6.00) | +++ (pIC50 ≧ 6.00) | +++ (pIC50 ≧ 6.00) | CC(=O)N1CCN(Cc2c(-c3ccc(Cl)cc3)nc3ccc(N(C(F)F)S(C)(=O)=O)cn23)CC1 [Compound 368]
